Test results from publication PMC11467737, “Osteocalcin binds to a GPRC6A Venus fly trap allosteric site to positively modulate GPRC6A signaling” (FASEB BioAdvances, 2024).

What was measured:
human GPRC6A isoform 1 [1] = target: T1, human GPRC6A isoform 1 (Homo sapiens, UniProt Q5T6X5); assay: cAMP accumulation in HEK-293 cells transfected with human GPRC6A isoform 1 (wild-type, full length); assay type: cell-based; conditions: fragments at 20 nM; HEK-293 with pcDNA3-hGPRC6A; 40 min; Figure 3C / S5C
T1 construct: expressed in transfected cells; host or cells: HEK-293, pcDNA3-hGPRC6A
T1 sequence (Q5T6X5 19-926): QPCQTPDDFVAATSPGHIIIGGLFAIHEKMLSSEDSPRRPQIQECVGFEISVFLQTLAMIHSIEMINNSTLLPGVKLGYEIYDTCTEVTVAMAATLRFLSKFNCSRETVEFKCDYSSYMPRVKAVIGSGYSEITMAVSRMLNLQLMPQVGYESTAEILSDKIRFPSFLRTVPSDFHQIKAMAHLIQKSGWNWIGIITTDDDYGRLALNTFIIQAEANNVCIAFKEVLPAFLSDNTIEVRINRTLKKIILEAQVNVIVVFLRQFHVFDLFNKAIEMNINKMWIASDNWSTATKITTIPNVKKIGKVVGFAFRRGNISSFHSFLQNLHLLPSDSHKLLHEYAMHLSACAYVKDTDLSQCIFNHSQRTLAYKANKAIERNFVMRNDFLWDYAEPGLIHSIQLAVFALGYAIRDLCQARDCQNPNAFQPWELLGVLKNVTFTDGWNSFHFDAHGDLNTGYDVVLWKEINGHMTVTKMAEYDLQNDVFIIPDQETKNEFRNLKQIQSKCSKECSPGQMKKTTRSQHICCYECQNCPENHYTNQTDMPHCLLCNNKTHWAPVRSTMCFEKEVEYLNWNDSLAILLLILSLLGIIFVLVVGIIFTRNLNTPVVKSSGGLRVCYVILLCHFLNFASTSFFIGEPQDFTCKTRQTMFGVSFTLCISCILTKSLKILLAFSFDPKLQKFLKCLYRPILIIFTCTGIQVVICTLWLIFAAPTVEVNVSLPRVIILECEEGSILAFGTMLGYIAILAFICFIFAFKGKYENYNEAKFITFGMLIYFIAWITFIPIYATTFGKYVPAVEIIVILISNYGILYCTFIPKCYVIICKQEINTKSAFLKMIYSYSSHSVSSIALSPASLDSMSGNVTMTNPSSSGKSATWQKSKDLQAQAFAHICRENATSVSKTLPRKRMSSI
Description: (§1) HEK‐293 transfected with human GPRC6A isoform cDNA plasmids cells (10^5 cells/well)[30] were cultured in 24‐well plates in DMEM supplemented with 10% fetal bovine serum and 1% penicillin/streptomycin (100 U/mL of penicillin and 100 μg/mL of streptomycin) for 48 h followed by 4 h incubation in DMEM/F12 containing 0.1% BSA and 0.5 mM IBMX to achieve quiescence and preventing cAMP degradation. Quiescent cells were treated with vehicle control, various ligands at concentration as indicated for 40 min at 37°C. Then, the reaction was stopped, and the cells lysed with 0.5 mL 0.1 N HCl. cAMP levels were measured by using Cyclic AMP EIA kit (Cayman Chemical; Ann Arbor, MA, USA) following the manufacture's protocol.

human GPRC6A isoform 1 [2] = target: T1, human GPRC6A isoform 1; assay: ERK activation (phospho-ERK/total ERK ELISA) in HEK-293 cells transfected with human GPRC6A isoform 1 (wild-type); assay type: cell-based; conditions: fragments at 20 nM; HEK-293 with pcDNA3-hGPRC6A; 15 min; Figure 3B / S5B
Description: All culture reagents were from Invitrogen (Waltham, MA, USA). Human embryonic kidney HEK‐293 cells were obtained from American Type Culture Collection and cultured in DMEM medium supplemented with 10% fetal bovine serum and 1% Penicillin/Streptomycin (P/S). Briefly, HEK‐293 cells transfected with/without human GPRC6A isoforms cDNA plasmids were starved by overnight incubation in serum‐free DMEM/F12 containing 0.1% bovine serum albumin (BSA) and stimulated with various ligands at different doses. […]

human GPRC6A isoform 2 = target: T2, human GPRC6A isoform 2 (Homo sapiens, UniProt Q5T6X5); assay: cAMP accumulation in HEK-293 cells transfected with human GPRC6A isoform 2; assay type: cell-based; conditions: HEK-293 transfected with GPRC6A isoform 2; presence of 1 mM calcium; 40 min; Figure 2A
T2 construct: expressed in transfected cells; host or cells: HEK-293
T2 sequence (Q5T6X5 19-751 isoform Q5T6X5-2 limits assumed): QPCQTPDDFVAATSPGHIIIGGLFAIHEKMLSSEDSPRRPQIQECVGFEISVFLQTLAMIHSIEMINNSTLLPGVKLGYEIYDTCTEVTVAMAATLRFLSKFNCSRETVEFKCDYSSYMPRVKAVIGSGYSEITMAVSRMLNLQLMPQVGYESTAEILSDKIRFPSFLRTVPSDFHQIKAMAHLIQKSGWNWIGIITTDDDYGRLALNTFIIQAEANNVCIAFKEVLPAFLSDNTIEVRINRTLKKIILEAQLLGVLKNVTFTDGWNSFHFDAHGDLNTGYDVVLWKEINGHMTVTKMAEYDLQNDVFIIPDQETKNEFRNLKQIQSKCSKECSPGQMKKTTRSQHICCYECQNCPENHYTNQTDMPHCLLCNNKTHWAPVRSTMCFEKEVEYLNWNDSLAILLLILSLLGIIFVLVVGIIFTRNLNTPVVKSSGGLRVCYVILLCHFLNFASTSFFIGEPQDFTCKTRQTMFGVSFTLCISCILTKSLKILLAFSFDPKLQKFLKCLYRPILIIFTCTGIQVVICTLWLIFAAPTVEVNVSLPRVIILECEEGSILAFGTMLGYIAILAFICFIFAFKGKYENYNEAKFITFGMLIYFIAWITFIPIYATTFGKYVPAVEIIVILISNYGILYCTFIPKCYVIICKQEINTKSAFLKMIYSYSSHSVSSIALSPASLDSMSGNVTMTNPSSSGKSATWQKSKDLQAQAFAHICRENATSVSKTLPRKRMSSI
Description: as §1

human GPRC6A isoform 3 = target: T3, human GPRC6A isoform 3 (Homo sapiens, UniProt Q5T6X5); assay: cAMP accumulation in HEK-293 cells transfected with human GPRC6A isoform 3; assay type: cell-based; conditions: HEK-293 transfected with GPRC6A isoform 3, 40 min
T3 construct: expressed in transfected cells; host or cells: HEK-293
T3 sequence (Q5T6X5 19-855 isoform Q5T6X5-3 limits assumed): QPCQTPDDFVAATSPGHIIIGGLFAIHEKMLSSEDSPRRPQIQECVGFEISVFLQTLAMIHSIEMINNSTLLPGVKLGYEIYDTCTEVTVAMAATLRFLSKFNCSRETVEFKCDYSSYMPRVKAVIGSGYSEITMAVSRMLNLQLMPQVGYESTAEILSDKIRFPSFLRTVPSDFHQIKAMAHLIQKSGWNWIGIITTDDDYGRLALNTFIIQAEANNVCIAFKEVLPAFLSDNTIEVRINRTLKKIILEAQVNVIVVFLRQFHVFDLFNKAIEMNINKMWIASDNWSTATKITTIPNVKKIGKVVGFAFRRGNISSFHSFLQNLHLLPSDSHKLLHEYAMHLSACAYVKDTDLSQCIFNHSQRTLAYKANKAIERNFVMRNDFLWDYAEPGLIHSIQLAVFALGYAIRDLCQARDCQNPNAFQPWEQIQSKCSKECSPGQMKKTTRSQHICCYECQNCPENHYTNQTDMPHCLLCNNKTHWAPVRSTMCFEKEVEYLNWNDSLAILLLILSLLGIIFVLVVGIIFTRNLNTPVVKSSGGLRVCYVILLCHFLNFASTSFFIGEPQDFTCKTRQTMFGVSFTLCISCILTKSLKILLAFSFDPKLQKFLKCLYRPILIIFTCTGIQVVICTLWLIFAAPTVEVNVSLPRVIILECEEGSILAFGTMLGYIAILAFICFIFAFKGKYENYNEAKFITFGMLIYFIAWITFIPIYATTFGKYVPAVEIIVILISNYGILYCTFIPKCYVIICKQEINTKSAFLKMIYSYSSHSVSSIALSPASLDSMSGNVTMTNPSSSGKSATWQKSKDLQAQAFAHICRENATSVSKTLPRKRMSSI
Description: as §1

mouse model = system: mouse model; parameters: method as in PMID 32147363; conditions: oral or intraperitoneal administration to a mouse model; cited from earlier work
GPRC6A = system: GPRC6A; parameters: method as in PMID 32147363; conditions: cited from earlier work

Compound: APVPYPDPLEPR [Ocn 8–19, synthesized human Ocn fragment, 12 aa]
- cAMP accumulation by synthesized human Ocn fragments (human GPRC6A isoform 1 [1]): activated GPRC6A
- ERK phosphorylation by synthesized human Ocn fragments (human GPRC6A isoform 1 [2]): activated GPRC6A

Compound: N=C(N)NCCC[C@H](N)C(=O)O [L‐Arg, L‐Arginine]
- L-Arg stimulation of cAMP accumulation (human GPRC6A isoform 2): loss of L‐Arg stimulation of cAMP
- L-Arg stimulation of cAMP accumulation (human GPRC6A isoform 3; presence of 1 mM calcium, Figure 2A): retained responsiveness

Compound: WLGAPVPYPDPLEPR
- Effect on fatty liver disease and insulin resistance (mouse model): improve fatty liver disease and insulin resistance
- Activation of GPRC6A in vitro (GPRC6A): activate GPRC6A in vitro

Compound: C[C@]12CC[C@H]3[C@@H](CCC4=CC(=O)CC[C@@]43C)[C@@H]1CC[C@@H]2O [testosterone]
- Testosterone (T) activation, cAMP accumulation (human GPRC6A isoform 3; Figure S4): loss responsive
